This assay relates to P388 leukemia ip, CD2F1 mice, survival T/C. As to the kind of experiment: NCI In Vivo Anticancer Drug Screen. Data for tumor model P388 Leukemia (intraperitoneal) in CD2F1 (CDF1) mice. The note with it: endpoint: median survival time, higher = longer survival. The method, boiled down:
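Mice carrying the transplanted tumor received test compound or vehicle. Survival was recorded in each group, and the value is the treated-group measurement divided by that of the vehicle-treated control group.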

Setting [1] is: dose: 25.0 mg/kg/injection, schedule: Q01DX009 (ip), vehicle: other.
Setting [2] is: dose: 50.0 mg/kg/injection, schedule: Q01DX009 (ip), vehicle: other.
[3] abbreviates: dose: 100.0 mg/kg/injection, schedule: Q01DX009 (ip), vehicle: other.
Where [4] appears, read: dose: 200.0 mg/kg/injection, schedule: Q01DX009 (ip), vehicle: other.
[5] abbreviates: dose: 50.0 mg/kg/injection, schedule: Q01DX009 (ip), vehicle: Klucel (hydroxypropylcellulose) (HPC).
Setting [6] is: dose: 100.0 mg/kg/injection, schedule: Q01DX009 (ip), vehicle: Klucel (hydroxypropylcellulose) (HPC).
Setting [7] is: dose: 200.0 mg/kg/injection, schedule: Q01DX009 (ip), vehicle: Klucel (hydroxypropylcellulose) (HPC).
Setting [8] is: dose: 100.0 mg/kg/injection, schedule: Q04DX002 (ip), vehicle: Klucel (hydroxypropylcellulose) (HPC).

“And” between values parts separate entries of the source, which are not always exact repeats. Equal entries are not always repeated. Inconclusive results and toxic doses are left out.

Our source for the T/C values is PubChem BioAssay AID330 (DTP/NCI, 2004).

`CC(C)(C)NC1/C(=C\c2ccccc2)C(=O)c2ccccc2C1(C)C` (stereo not drawn): the T/C runs as follows: under setting [1], 109 % of control; under setting [2], 101 % of control; under setting [3], 110 % of control; under setting [4], 124 % of control.
Take `Cc1ccc(S(=O)(=O)Nc2nnc(NS(=O)(=O)c3ccc(C)cc3)nn2)cc1`: the T/C is 96 % of control (dose: 12.5 mg/kg/injection, schedule: Q01DX009 (ip), vehicle: other); 96 % of control under setting [1]; 96 % of control under setting [2]; 91 % of control under setting [3]; 94 % of control under setting [4].
Regarding `C=C1CC[C@H]2C(C)=CC[C@H]3C(=C)C(=O)O[C@@H]3[C@@H]12`, the T/C was 90 % of control (dose: 5.0 mg/kg/injection, schedule: Q01DX009 (ip), vehicle: saline with Tween-80); 91 % of control (dose: 10.0 mg/kg/injection, schedule: Q01DX009 (ip), vehicle: saline with Tween-80); 97 % of control (dose: 20.0 mg/kg/injection, schedule: Q01DX009 (ip), vehicle: saline with Tween-80); 95 % of control (dose: 40.0 mg/kg/injection, schedule: Q01DX009 (ip), vehicle: saline with Tween-80); 107 % of control (dose: 100.0 mg/kg/injection, schedule: Q04DX002 (ip), vehicle: saline with Tween-80); 112 % of control (dose: 200.0 mg/kg/injection, schedule: Q04DX002 (ip), vehicle: saline with Tween-80). In addition, the T/C (dose: 400.0 mg/kg/injection, schedule: Q04DX002 (ip), vehicle: saline with Tween-80) is 102 % of control.
As for `CCCCCCCCCCCCCC[N+]1([O-])CCCCC1`, the T/C (dose: 12.5 mg/kg/injection, schedule: Q01DX009 (ip), vehicle: saline) is 100 % of control; the T/C (dose: 25.0 mg/kg/injection, schedule: Q01DX009 (ip), vehicle: saline) is 92 % of control; the T/C (dose: 50.0 mg/kg/injection, schedule: Q01DX009 (ip), vehicle: saline) is 106 % of control and 91 % of control.
In the case of `CC(c1ccccc1)c1cc(C(C)(C)C)cc(C(C)(C)C)c1O` (stereo not drawn), the T/C is 96 % of control (dose: 50.0 mg/kg/injection, schedule: Q01DX005 (ip), vehicle: distilled water + alcohol); 100 % of control (dose: 100.0 mg/kg/injection, schedule: Q01DX005 (ip), vehicle: distilled water + alcohol); 99 % of control (dose: 200.0 mg/kg/injection, schedule: Q01DX005 (ip), vehicle: distilled water + alcohol).
On to `Cc1cc(C2(c3cc(C)c(O)c(C)c3)OC(=O)c3ccccc32)cc(C)c1O`, for which the T/C reads like this: under setting [5], 105 % of control; under setting [6], 99 % of control; under setting [7], 103 % of control.
Take `Cc1c([N+](=O)[O-])oc2c1C(=O)NCCC2`: the T/C is 104 % of control under setting [5], 91 % of control under setting [6] and 108 % of control under setting [7].
On to `Brc1cccc[n+]1Cc1cc2ccccc2c2ccccc12`, for which the T/C is, setting by setting: (dose: 25.0 mg/kg/injection, schedule: Q04DX002 (ip), vehicle: Klucel (hydroxypropylcellulose) (HPC)) 105 % of control; (dose: 50.0 mg/kg/injection, schedule: Q04DX002 (ip), vehicle: Klucel (hydroxypropylcellulose) (HPC)) 106 % of control; under setting [8], 112 % of control.
As to `CN1C(=O)C2C(N(C3OC(CO)C(O)C3O)C1=O)C2(Cl)Cl` (stereo not drawn), the T/C reads like this: (dose: 75.0 mg/kg/injection, schedule: Q04DX003 (ip), vehicle: saline) 100 % of control; (dose: 100.0 mg/kg/injection, schedule: Q04DX003 (ip), vehicle: saline) 100 % of control; (dose: 150.0 mg/kg/injection, schedule: Q04DX003 (ip), vehicle: saline) 99 % of control; (dose: 200.0 mg/kg/injection, schedule: Q04DX003 (ip), vehicle: saline) 99 % of control; (dose: 300.0 mg/kg/injection, schedule: Q04DX003 (ip), vehicle: saline) 102 % of control; (dose: 400.0 mg/kg/injection, schedule: Q04DX003 (ip), vehicle: saline) 99 % of control.
Take `COCCOC1=C(N2CC2)C(=O)C(OCCOC)=C(N2CC2)C1=O`: the T/C is, setting by setting: (dose: 1.87 mg/kg/injection, schedule: Q01DX009 (ip), vehicle: saline) 204 % of control; (dose: 2.2 mg/kg/injection, schedule: Q04DX003 (ip), vehicle: saline) 113 % of control; (dose: 3.3 mg/kg/injection, schedule: Q04DX003 (ip), vehicle: saline) 122 % of control; (dose: 3.75 mg/kg/injection, schedule: Q01DX009 (ip), vehicle: saline) 118 % of control.
With `Nc1ccc(-c2ccc(N)c(Cl)c2)cc1Cl`, the T/C reads like this: (dose: 50.0 mg/kg/injection, schedule: Q01DX009 (ip), vehicle: saline with Tween-80) 104 % of control; (dose: 100.0 mg/kg/injection, schedule: Q01DX009 (ip), vehicle: saline with Tween-80) 114 % of control; (dose: 200.0 mg/kg/injection, schedule: Q01DX009 (ip), vehicle: saline with Tween-80) 112 % of control.
As to `COc1cc2c(c(OC)c1OC)-c1ccc(OC)c(=O)cc1[C@@H](N(C)C(C)=O)CC2`, the T/C was 157 % of control and 187 % of control (dose: 0.31 mg/kg/injection, schedule: Q01DX009 (ip), vehicle: Klucel (hydroxypropylcellulose) (HPC)); 181 % of control (dose: 0.62 mg/kg/injection, schedule: Q01DX009 (ip), vehicle: Klucel (hydroxypropylcellulose) (HPC)).
Take `CC(C)CCC(C)C1CCC2C3CC([N+](=O)[O-])=C4CC(OC(=O)c5ccccc5)CCC4(C)C3CCC12C` (stereo not drawn): the T/C was 90 % of control (dose: 100.0 mg/kg/injection, schedule: Q04DX003 (ip), vehicle: saline with Tween-80); 90 % of control (dose: 200.0 mg/kg/injection, schedule: Q04DX003 (ip), vehicle: saline with Tween-80); 90 % of control (dose: 400.0 mg/kg/injection, schedule: Q04DX003 (ip), vehicle: saline with Tween-80).
Take `CCCCCCCc1cc(=O)[nH]c(=S)[nH]1`: the T/C is, setting by setting: (dose: 60.0 mg/kg/injection, schedule: Q01DX005 (ip), vehicle: Klucel (hydroxypropylcellulose) (HPC)) 96 % of control; (dose: 120.0 mg/kg/injection, schedule: Q01DX005 (ip), vehicle: Klucel (hydroxypropylcellulose) (HPC)) 95 % of control; (dose: 240.0 mg/kg/injection, schedule: Q01DX005 (ip), vehicle: Klucel (hydroxypropylcellulose) (HPC)) 89 % of control.
For the compound `NC(=S)n1nc(-c2ccccc2)c(N=Nc2ccccc2Cl)c1-c1ccccc1`, the T/C was 117 % of control (dose: 50.0 mg/kg/injection, schedule: Q01DX005 (ip), vehicle: saline with Tween-80); 111 % of control (dose: 100.0 mg/kg/injection, schedule: Q01DX005 (ip), vehicle: saline with Tween-80); 108 % of control (dose: 200.0 mg/kg/injection, schedule: Q01DX005 (ip), vehicle: saline with Tween-80).
In the case of `CC1(C)CC(=O)N(CN2CCCCC2)C(=O)C1`, the T/C is, setting by setting: under setting [8], 114 % of control; (dose: 200.0 mg/kg/injection, schedule: Q04DX002 (ip), vehicle: Klucel (hydroxypropylcellulose) (HPC)) 120 % of control.
Regarding `C=CCNC(=S)Nc1sc2c(c1C(=O)OCC)CCCC2`, the T/C under setting [5] was 93 % of control, the T/C under setting [6] was 94 % of control and the T/C under setting [7] is 89 % of control.
As to `O=C1OCCCOC(=O)c2cc(ccc2O)OCC#CC#CCOc2ccc(O)c1c2`, the T/C is, setting by setting: (dose: 60.0 mg/kg/injection, schedule: Q01DX005 (ip), vehicle: saline with Tween-80) 92 % of control; (dose: 120.0 mg/kg/injection, schedule: Q01DX005 (ip), vehicle: saline with Tween-80) 97 % of control; (dose: 240.0 mg/kg/injection, schedule: Q01DX005 (ip), vehicle: saline with Tween-80) 97 % of control.
`O=S1(=O)OCCCCO1`: the T/C was 107 % of control (dose: 12.5 mg/kg/injection, schedule: Q01DX005 (ip), vehicle: saline) and 100 % of control (dose: 25.0 mg/kg/injection, schedule: Q01DX005 (ip), vehicle: saline).
Consider `c1ccc(-c2cc(-c3ccccc3)o/c(=N/n3cnnc3)c2)cc1`, for which the T/C is 99 % of control (dose: 50.0 mg/kg/injection, schedule: Q01DX005 (ip), vehicle: Klucel (hydroxypropylcellulose) (HPC)); 89 % of control (dose: 100.0 mg/kg/injection, schedule: Q01DX005 (ip), vehicle: Klucel (hydroxypropylcellulose) (HPC)); 89 % of control (dose: 200.0 mg/kg/injection, schedule: Q01DX005 (ip), vehicle: Klucel (hydroxypropylcellulose) (HPC)).
